The values that follow come from patent US5229131A, “Pulsatile drug delivery system” (priority 1991, dated 1993).

As usually defined, the half-life is how long it takes for the measured level to halve.

Each structure is given as a SMILES string. Where a name gives a salt, the structure may show the parent alone. Read-outs that look alike come from different tables or passages of the source.

The conditions of data set [1]: cited from earlier work.
The nature of data set [2]: in vivo. As to conditions: dog, iv. The method, then: Single IV doses were given to each of a group of four beagle dogs: 5 mg of propranolol free base was dissolved in 3 ml sterile sodium chloride solution USP. The solution was infused over a 20 second period through an in-line millipore filter. Blood samples (1 ml) were withdrawn at desired intervals postinfusion. The IV results are shown as a " ." Similarly, blood plasma samples were withdrawn and analyzed for oral administration of 80 mg propranolol in immediate release form (" ") and the polymer coated dosage delivery form of section A. above ("+").
DDT is indicated by the release of citric acid from the drug-containing core which causes a spike in the pH time profile. The pH will remain depressed for the duration of the dissolution of the citric acid.
Blood samples (1 ml) were withdrawn at 5, 10, 15, 20, 30, 40, 50, 60, 70, 80, 90, 105, 120, 150, 180, 240, 300, 360 and 420 minutes after dosing for the immediate release dosage form. For the polymer coated tablets, the sampling schedule began at the time of coating dissolution (CDT). After dissolution, blood samples (1 ml) were withdrawn at 5, 15, 30, 45, 60, 90, 120, 190, 240, 300, 360 and 420 minutes.

The conditions of data set [3]: in man; cited from earlier work.
The conditions of data set [4]: saturated solution; cited from earlier work.
Where [5] appears, read: list of drugs with nonlinear kinetics.

With `CC(C)C[C@H]1C(=O)N2CCC[C@H]2[C@]2(O)O[C@](NC(=O)[C@@H]3C=C4c5cccc6[nH]c(Br)c(c56)C[C@H]4N(C)C3)(C(C)C)C(=O)N12` [Bromocriptine Mesylate], the F in data set [1] (setting [5]) is 0.6.
With `CN/C(=N/CCSCc1nc[nH]c1C)NC#N` [Cimetidine], the F in data set [1] (setting [5]) is 0.7.
In the case of `C#C[C@]1(O)CC[C@H]2[C@@H]3CCc4cc(O)ccc4[C@H]3CC[C@@]21C` [Ethinylestradiol], the F in data set [1] (setting [5]) is listed as 0.4.
Take `C[C@H]1C[C@@H]2[C@H]([C@@H](O)C[C@@]3(C)[C@H]2CC[C@]3(O)C(=O)CO)[C@@]2(C)C=CC(=O)C=C12` [Methylprednisolone]: the F in data set [1] (setting [5]) is 0.85.
As for `C#C[C@]1(O)CC[C@H]2[C@@H]3CCC4=CC(=O)CC[C@@H]4[C@H]3CC[C@@]21C` [Norethindrone], in data set [1] (setting [5]), the F is on record as 0.65.
As for `C[C@]12C=CC(=O)C=C1CC[C@@H]1[C@@H]2C(=O)C[C@@]2(C)[C@H]1CC[C@]2(O)C(=O)CO` [Prednisone], the F in data set [1] (in vivo) was 0.85.
As to `CC(C)NCC(O)COc1cccc2ccccc12` (stereo not shown) [propranolol], the half-life was 1.97 h in data set [2] (half-life) and ~2 h in data set [2] (terminal phase half-life). The biological half-life result in data set [3] is given as “two to six”.
For the molecule `[Cl-].[Na+]` [sodium chloride], in data set [4], the osmotic pressure is listed as 5250 psi.
